According to paper PMC11859040 (Pharmaceuticals, 2025):
Converted amounts (≈) assume the structure as drawn.

Assays:
HCE cells = experiment: Cytocompatibility, MTT assay, HCE cells; format: cell-based, human; settings: 5 μM CUR, 3 h, vs control
Protocol: HCE cells were cultured at 37 °C and 5% CO2 using a growth medium consisting of 1:1 DMEM/F12 (Gibco by Life Technologies Limited, Paisley, UK), 15% FBS (fetal bovine serum; Gibco by Life Technologies Limited, Paisley, UK), 100 U/mL penicillin, 0.1 mg/mL streptomycin (penicillin/streptomycin solution from EuroClone spa, Pero, Italy), 0.3 mg/mL L-glutamine (EuroClone spa, Pero, Italy), 10 ng/mL EGF (Recombinant Human Epidermal Growth Factor; Gibco by Life Technologies Corporation, Carlsbad, CA, USA), 5 μg/mL human recombinant insulin (Gibco by Life Technologies Corporation, Grand Island, NY, USA), and 0.5% sterile filtrated DMSO (Sigma-Aldrich, St. Louis, MO, USA), 0.1 μg/mL cholera toxin (Sigma-Aldrich, St. Louis, MO, USA). The fresh growth medium was changed for the cells every 2–3 days. When reaching a 75–80% confluence, the cells were either subcultured 1:5–1:30 or seeded for the experiment. Upon confluence, the cells were washed with 1xDPBS (Gibco by Life Technologies Limited, Paisley, UK) and detached with 0.05% trypsin–EDTA (Gibco by Life Technologies Limited, Paisley, UK). […] Cell viability was assessed using the 3-(4,5-dimethyl-thiazol-2-yl)-2,5-diphenyltetrazolium bromide (MTT) assay. Cells were assessed with microscopy before the viability test to confirm the correlation of the absorbance readings from the MTT assay.

cell proliferation = settings: cited from earlier work
ARPE-19 cells [1] = experiment: Cytocompatibility, MTT assay, ARPE-19 cells; format: cell-based, human; settings: 5 μM CUR, 3 h, vs control
Protocol: The ARPE-19 cell line obtained from the American Type Culture Collection (ATCC, Manassas, VA, USA) was used in the study. Cells were cultured in Dulbecco’s modified eagle medium/nutrition mix F-12 (1:1; Gibco, Paisley, UK) supplemented with 10% fetal bovine serum (FBS; Hyclone, Logan, UT, USA), 100 U/mL penicillin (Lonza, Walkersville, MD), and 2 mM L-glutamine (Lonza, Walkersville, MD, USA). The cells were grown at 37 °C in a humidified 5% CO2 atmosphere. The experiments were performed 24 h after seeding using an FBS-free medium. […] The cells were exposed for 3 h before the cell viability tests. Cell viability was assessed using the MTT assay. Cells were assessed with microscopy before the viability test to confirm the correlation of the absorbance readings from the MTT assay.

[2] = Solubility of CUR in water (inherent vs apparent with SNEDDS); format: physicochemical
ARPE-19 cells [3] = experiment: Cell viability in HQ-induced oxidative stress (MTT); format: cell-based, human; settings: ARPE-19, 600 μM HQ
Protocol: (§1) […] Cells were rinsed once using an FBS-free medium to remove any residual CUR-SNEDDS. Afterward, the oxidative stress-provoking agent, HQ (Sigma-Aldrich), was added. The cells were exposed to 600 μM HQ for 2 h to achieve 60–70% viability, as determined in the control samples [44]. Cell viability was assessed using the MTT assay. Cells were assessed with microscopy before the viability test to confirm the correlation of the absorbance readings from the MTT assay.

[4] = CUR solubility in different vehicles (oils and surfactants); format: physicochemical; settings: for solubility at 24 h: 25 °C, thermodynamic from solid
Protocol: Different types of oils were selected based on biocompatibility and biodegradability: Mygliol® 812, Capryol® PGMC and Capryol® 90, Tegin® O, Isopropylmyristate (IPM), and Castor oil. Five surfactants, including Tween® 20, Tween® 80, Cremophor EL®, Solutol ®HS15, and Transcutol® P, were selected for the experiment in order to investigate the best materials for CUR-SNEDDS preparation. […] The mixtures were stirred (350 rpm) using a magnetic stirrer for 24 h. The samples were covered in order to prevent photo-degradation. […] The absorbance reading occurred at 422 nm.

ARPE-19 cells [5] = experiment: Indirect quantification of CUR uptake (CUR recovered in medium); format: cell-based, human
Protocol: ARPE-19 cells were seeded on acid-etched coverslips placed into a 6-well plate with a seeding density of 850,000 cells/well and incubated at 37 °C for 24 h. The cells were then incubated with media containing AC at the same concentration that was used for the cytotoxicity experiment. After 3 h of exposure to the AC and C formulations, the coverslips were removed, washed twice with PBS, and fixed with 4% paraformaldehyde (PFA) for 15 min. Subsequently, the PFA was removed, followed by two washes with PBS. […] Cell imaging was conducted using a ZEISS Axio Imager M2 fluorescent microscope (Carl Zeiss Microscopy Deutschland GmbH, Oberkochen, Germany). […] The experiments were conducted 24 h after seeding, using an FBS-free medium. The cells were rinsed once with a serum-free medium to remove the FBS residues and then exposed to 0.1–2 μM concentrations of SNEDD-CUR diluted in a medium. After a 3 h exposure period, the medium was removed and collected into another 96-well plate.

[6] = Stability of CUR in PBS and in SNEDDS under storage conditions; format: physicochemical; settings: PBS, 6 h
Protocol: HPLC analysis was performed on a reversed-phase C18 column (4.6 mm × 150 mm, 5 μm, ZORBAX Eclipse SB-C18) at 25 °C. The mobile phase was composed of water with 4% acetic acid and acetonitrile (44:56, v/v), filtered through a 0.22 μm Milli-pore filter and degassed prior to use. The flow rate was 0.850 mL/min, and the eluent was detected by a DAD detector at 430 nm.
The preparation of the sample AC followed the procedure described in Section 4.3. The sample was divided into four glass vials, with each set of vials being stored under different conditions, namely at 4 °C dark, 25 °C dark, 25 °C light, and 40 °C dark, to assess the typical storage conditions and investigate possible protection from degradation phenomena. Sample C was prepared differently. […] The mixture was then subjected to magnetic stirring at 350 rpm for 20 min. After stirring, the tube was centrifuged at 13,000 rpm for 20 min at 25 °C. The supernatant was collected and divided into four glass vials, each representing a different storage condition compared to the AC sample. […] HPLC analysis was employed to detect any variations in absorbance.

[7] = Cell viability in HQ-induced oxidative stress (MTT); format: cell-based, human; settings: human, ARPE-19 cells; ARPE-19, 600 μM HQ alone
Protocol: as §1

| Structure (SMILES) | Reduction in cell viability (HCE cells) | IC50 (cell proliferation; anticancer agent and cell proliferation blocker) [µM] | Concentrations at which CUR acts as anticancer agent and cell proliferation blocker (cell proliferation) [µM] | Reduction in cell viability (ARPE-19 cells [1]) | solubility [2] [µg/mL] | Effect on cell viability compared to cells exposed to HQ (ARPE-19 cells [3]) | solubility at 24 h ([4]; aqueous with cosolvent or surfactant or cyclodextrin, in Tween 80) [µg/mL] | solubility at 24 h ([4]; oil or lipid, in Capryol 90) [µg/mL] | solubility at 24 h ([4]; organic solvent or mixture, in Transcutol P) [µg/mL] | Solubility of CUR ([4]; in Capryol PGMC) [µg/mL] | CUR recovered in the medium (not internalized) (ARPE-19 cells [5]; ARPE-19, 3 h, listed as free CUR) [%] | CUR internalized (ARPE-19 cells [5]; ARPE-19, concentration not stated (discussion)) [%] | CUR internalized inside the cells (ARPE-19 cells [5]; ARPE-19, higher concentrations such as 1 μM and 2 μM, 3 h) [%] | CUR remaining / recovered ([6]; 4 °C) [%] | CUR remaining / recovered ([6]; 25 °C (r.t.) dark) | CUR remaining / recovered ([6]; 25 °C (r.t.) dark, listed as Native CUR) [%] | CUR remaining / recovered ([6]; 25 °C light) | CUR remaining / recovered ([6]; 40 °C dark) | viability at 2 h, 600 μM [7] [%] |
| --- | --- | --- | --- | --- | --- | --- | --- | --- | --- | --- | --- | --- | --- | --- | --- | --- | --- | --- | --- |
| COc1cc(/C=C/C(=O)CC(=O)/C=C/c2ccc(O)c(OC)c2)ccc1O [CUR, Curcumin] | not observed | ~10 | 5 to 10 | not observed | < 1 | no significant difference | 6800 (≈ 18.5 mM) | 8360 (≈ 22.7 mM) | 4610 (≈ 12.5 mM) | 8000 | 100 | 0 | 1 | 57 | less than 10% | 9 | completely degraded | completely degraded | – |
| Oc1ccc(O)cc1 [HQ, hydroquinone] | – | – | – | – | – | – | – | – | – | – | – | – | – | – | – | – | – | – | 70 |
